Patent publication US6667346B2, “Method for protecting cells and tissues from ionizing radiation toxicity with α, β unsaturated aryl sulfones” (Temple University - Of The Commonwealth System of Higher …, priority 2001, dated 2003)

Legend:
DU145 cells = assay: Tumor cell killing by ionizing radiation, compound added after IR treatment; format: cell-based; conditions: for Interference with killing of tumor cells by ionizing radiation: continuous exposure, added immediately following 10 Gy IR
Experimental: DU145 cells were plated in 6 well dishes at a cell density of 1.0×10^5 cells per 35 mm^2 in DMEM completed with 10% fetal bovine serum and antibiotics. The plates were incubated overnight and the cells were irradiated with 10 Gy of ionizing irradiation. Compound 1 (1.0 uM and 2.0 uM) or Compound 13 (10.0 uM and 20.0 uM) in DMSO was added to the cells immediately following the IR treatment.

HFL-1 cells = assay: Radioprotective effects on cultured normal cells (colony formation after irradiation); format: cell-based, human; conditions: HFL-1 normal diploid lung fibroblasts; 2.5 to 20 micromolar for 24 hrs before 10 Gy or 15 Gy IR; colonies counted after 3 weeks
Experimental: HFL-1 cells, which are normal diploid lung fibroblasts, were plated into 24 well dishes at a cell density of 3000 cells per 10 mm^2 in DMEM completed with 10% fetal bovine serum and antibiotics. The test compounds listed in Table 16 were added to the cells 24 hours later in select concentrations from 2.5 to 20 micromolar, inclusive, using DMSO as a solvent. Control cells were treated with DMSO alone. The cells were exposed to the test compound or DMSO for 24 hrs. The cells were then irradiated with either 10 Gy (gray) or 15 Gy of ionizing radiation (IR) using a J. L. Shepherd Mark I, Model 30-1 Irradiator equipped with ^137cesium as a source.
After irradiation, the medium on the test and control cells was removed and replaced with fresh growth medium without the test compounds or DMSO. The irradiated cells were incubated for 96 hours and duplicate wells were trypsinized and replated onto 100 mm^2 tissue culture dishes. The replated cells were grown under normal conditions with one change of fresh medium for 3 weeks. The number of colonies from each 100 mm^2 culture dish, which represents the number of surviving cells, was determined by staining the dishes as described below.
To visualize and count the colonies derived from the clonal outgrowth of individual radioprotected cells, the medium was removed and the plates were washed one time with room temperature phosphate buffered saline. The cells were stained with a 1:10 diluted Modified Giemsa staining solution (Sigma) for 20 minutes. The stain was removed, and the plates were washed with tap water. The plates were air dried, the number of colonies from each plate were counted and the average from duplicate plates was determined.
A “+” indicates radioprotective activity of between 2- and 4.5-fold at the concentrations tested. Fold protection was determined by dividing the average number of colonies from the test plates by the average number of colonies on the control plates.

C57 B6/J mice = assay: Radioprotective effect in mice when given after radiation exposure (mortality after 8 Gy); format: in vivo
Experimental: One group, designated the “200×2” group, received intraperitoneal injections of 200 micrograms (E)-4-carboxystyryl-4-chlorobenzylsulfone dissolved in DMSO (a 10 mg/Kg dose, assuming 20 g mice) 18 and 6 hours before irradiation with 8 Gy gamma radiation. The other group, designated “200 Post,” received an intraperitoneal injection of 200 micrograms (E)-4-carboxystyryl-4-chlorobenzylsulfone dissolved in DMSO (a 10 mg/Kg dose, based on 20 g mice) 15 minutes after irradiation with 8 Gy gamma radiation. A control group of 16 animals received 8 Gy gamma radiation alone.

C57 black mice = assay: Protection of mice from radiation toxicity by pre-treatment (mortality after 8 Gy); format: in vivo
Experimental: C57 black mice age 10-12 weeks (Taconic) were divided into two treatment groups of 10 mice each. One group, designated the “200×2” group, received intraperitoneal injections of 200 micrograms (E)-4-carboxystyryl-4-chlorobenzylsulfone dissolved in DMSO (a 10 mg/Kg dose, based on 20 g mice) 18 and 6 hours before irradiation with 8 Gy gamma radiation. The other group, designated “500×2,” received intraperitoneal injections of 500 micrograms (E)-4-carboxystyryl-4-chlorobenzylsulfone dissolved in DMSO (a 25 mg/Kg dose, based on 20 g mice) 18 and 6 hours before irradiation with 8 Gy gamma radiation. A control group of 16 animals received 8 Gy gamma radiation alone.

[1] = "200×2" group: 10 mg/Kg i.p. 18 and 6 hours before 8 Gy gamma radiation
[2] = "500×2" group: 25 mg/Kg i.p. 18 and 6 hours before 8 Gy gamma radiation

Compound: O=S(=O)(/C=C/c1ccc(F)cc1)Cc1ccc(Cl)cc1 [Compound 1, (E)-4-Fluorostyryl-4-chlorobenzylsulfone]
- Additive tumor cell killing effect (DU145 cells; 2.0 uM added immediately following 10 Gy IR): additive tumor cell killing effect
- Interference with killing of tumor cells by ionizing radiation (DU145 cells): did not interfere with the killing of tumor cells by ionizing radiation
- Activity (radioprotective activity, fold protection: colonies test/control) (HFL-1 cells): + (radioprotective activity of between 2- and 4.5-fold at the concentrations tested)

Compound: O=C(O)c1ccc(/C=C/S(=O)(=O)Cc2ccc(Cl)cc2)cc1 [Compound 13, (E)-4-Carboxystyryl-4-chlorobenzylsulfone]
- Additive tumor cell killing effect (DU145 cells; 20 uM added immediately following 10 Gy IR): additive tumor cell killing effect
- Interference with killing of tumor cells by ionizing radiation (DU145 cells): did not interfere with the killing of tumor cells by ionizing radiation
- Radioprotection by post-irradiation treatment versus pre-irradiation treatment (C57 B6/J mice; "200 Post" vs "200×2" group, 8 Gy gamma radiation): not as great as seen with pre-irradiation treatment
- Radiation-induced mortality compared with control animals (C57 B6/J mice; "200 Post": 10 mg/Kg i.p. 15 minutes after 8 Gy gamma radiation): significant delay in radiation-induced mortality
- Activity (radioprotective activity, fold protection: colonies test/control) (HFL-1 cells): + (radioprotective activity of between 2- and 4.5-fold at the concentrations tested)
- Maximum mortality rate by day 40 (C57 black mice; [1]): approximately 60%
- Mice dead at day 20 post-irradiation (C57 black mice; [1]): about 50%
- Maximum mortality rate by day 40 (C57 black mice; [2]): about 50%
- Mice dead at day 20 post-irradiation (C57 black mice; [2]): about 30%
- Radiation toxicity in mice (C57 black mice; pretreatment 18 and 6 hours before 8 Gy gamma radiation): significantly reduced

Compound: (E)-4-Fluorostyryl-4-trifluoromethylbenzylsulfone [Compound 5]
- Activity (radioprotective activity, fold protection: colonies test/control) (HFL-1 cells): + (radioprotective activity of between 2- and 4.5-fold at the concentrations tested)

Compound: (E)-2,4,6-Trimethoxystyryl-4-methoxybenzylsulfone [Compound 2]
- Activity (radioprotective activity, fold protection: colonies test/control) (HFL-1 cells): + (radioprotective activity of between 2- and 4.5-fold at the concentrations tested)

Compound: O=S(=O)(/C=C/c1ccoc1)Cc1ccc(Cl)cc1Cl [Compound 8, (E)-3-Furanethenyl-2,4-dichlorobenzylsulfone]
- Activity (radioprotective activity, fold protection: colonies test/control) (HFL-1 cells): + (radioprotective activity of between 2- and 4.5-fold at the concentrations tested)

Compound: (E)-4-Fluorostyryl-4-cyanobenzylsulfone [Compound 6]
- Activity (radioprotective activity, fold protection: colonies test/control) (HFL-1 cells): + (radioprotective activity of between 2- and 4.5-fold at the concentrations tested)

Compound: (E)-4-Fluorostyryl-4-chlorophenylsulfone [Compound 10]
- Activity (radioprotective activity, fold protection: colonies test/control) (HFL-1 cells): + (radioprotective activity of between 2- and 4.5-fold at the concentrations tested)

Compound: (Z)-Styryl-(E)-2-methoxy-4-ethoxystyrylsulfone [Compound 11]
- Activity (radioprotective activity, fold protection: colonies test/control) (HFL-1 cells): + (radioprotective activity of between 2- and 4.5-fold at the concentrations tested)

Compound: O=S(=O)(/C=C\c1ccc(F)cc1)Cc1ccc(Cl)cc1 [Compound 7, (Z)-4-Fluorostyryl-4-chlorobenzylsulfone]
- Activity (radioprotective activity, fold protection: colonies test/control) (HFL-1 cells): + (radioprotective activity of between 2- and 4.5-fold at the concentrations tested)
